How the values were obtained:
[1] = compatibility between liquid crystal compound and dichroic material (phase separation observed on hot stage under polarizing microscope); format: physicochemical; parameters: key: Compatible: in a case where phase separation is not observed, it is defined as “compatible”; Incompatible: in a case where phase separation is observed, it is defined as “incompatible”; conditions: for Second dichroic material Compatible or incompatible: with the liquid crystal compound of the same composition (same example); for First dichroic material Compatible or incompatible: with the liquid crystal compound of the same composition
Text: Here, the compatibility between the liquid crystal compound and the dichroic material can be confirmed by the following method.
First, two polarizers of an optical microscope (ECLIPSE E600 POL, manufactured by Nikon Corporation) are arranged so as to be orthogonal to each other, and a sample stand is set between the two polarizers.
Next, a sample composition obtained by mixing the liquid crystal compound contained in the polarizer-forming composition and a certain kind of dichroic material at a mass ratio is cast on glass, and this glass is set on a hot stage placed on the sample stand.
Next, the phase separation state of the sample is observed by raising or lowering the temperature of the hot stage in a range of higher than or equal to a higher temperature between the melting point of the liquid crystal compound and the melting point of the dichroic material and lower than or equal to a lower temperature between the isotropic phase transition temperature of the liquid crystal compound and the isotropic phase transition temperature of the dichroic material.
In this operation, in a case where phase separation is not observed, it is defined as “compatible”. Further, in a case where phase separation is observed, it is defined as “incompatible”.
Further, the compatibility between the liquid crystal compound and the first dichroic material or the second dichroic material in the polarizer-forming composition was confirmed by the method described above, and the results thereof are listed in Table 1.

[2] = maximum absorption wavelength of the dichroic material from ultraviolet visible spectrum in solution; format: physicochemical; conditions: solution in a good solvent, 380 to 800 nm
Text: Here, the maximum absorption wavelength (nm) of the dichroic material is acquired from an ultraviolet visible spectrum in a wavelength range of 380 to 800 nm measured by a spectrophotometer using a solution prepared by dissolving the dichroic material in a good solvent.

[3] = first listed first dichroic material
[4] = second listed first dichroic material

Row | Structure (SMILES) | Second dichroic material Compatible or incompatible [1] | maximum absorption wavelength [2] [nm] | First dichroic material Compatible or incompatible [1, 3] | First dichroic material Compatible or incompatible [1, 4]
1 | C=CC(=O)OCCCCCCCCCOc1ccc(N=Nc2cc3sc(N=Nc4ccc(N(CC)CCOC(=O)C=C)cc4)nc3s2)cc1 [Example C1] | Incompatible | 592 |  | 
2 | C=CC(=O)OCCCCCCCCCCOc1ccc(N=Nc2cc3sc(N=Nc4ccc(N(CC)CCOC(=O)C=C)cc4)nc3s2)cc1 [Example C2] | Incompatible | 592 |  | 
3 | C=CC(=O)OCCCCCCCCCOc1ccc(N=Nc2cc3sc(N=Nc4ccc(N(CC)CCOC(=O)C=C)cc4C)nc3s2)cc1 [Example C3] | Incompatible | 605 |  | 
4 | C=CC(=O)OCCN(CC)c1ccc(N=Nc2nc3sc(N=Nc4ccc(OCCCCCCCCCOC(=O)CC)cc4)cc3s2)cc1 [Example C4] | Incompatible | 592 |  | 
5 | C=CC(=O)OCCN(CC)c1ccc(N=Nc2nc3sc(N=Nc4ccc(OCCCCCCOC(C)=O)cc4)cc3s2)cc1 [Example C5] |  | 592 | Compatible | Compatible
6 | FC(F)(F)c1ccc(N=Nc2ccc(N=Nc3ccc(N4CCCC4)cc3)cc2)cc1 [Example M1] |  | 502 |  | Compatible
7 | CCCCc1ccc(N=Nc2ccc(N=Nc3ccc(N(CC)CCC#N)cc3)cc2)cc1 [Example M2] |  | 457 |  | Compatible
8 | C=CC(=O)CCCN(CC)c1ccc(N=Nc2ccc(N=Nc3ccc(CCCC)cc3)cc2)cc1 [Example M3] |  | 442 |  | Compatible
9 | C=CC(=O)OCCCCOc1ccc(N=Nc2ccc(N=Nc3ccc(N=Nc4ccc(OCCCCOC(=O)C=C)cc4)cc3C)cc2)cc1 [Example Y1] |  | 413 | Compatible | 
10 | C=CC(=O)OCCCCOc1ccc(N=Nc2ccc(N=Nc3ccc(N=Nc4ccc(OCCCCOC(=O)C=C)cc4O)cc3)c(C)c2)cc1 [Example Y2] |  | 445 | Compatible | 
11 | C=CC(=O)OCCCCCOc1ccc(N=Nc2ccc(N=Nc3ccc(N=Nc4ccc(OCCCCCOC(=O)C=C)cc4)cc3C)cc2)cc1 [Example Y3] |  | 413 | Compatible | 
12 | C=CC(=O)OCCCCCCCCCCCCOc1ccc(N=Nc2ccc(N=Nc3ccc(N=Nc4ccc(OCCCCCCCCCCCCOC(=O)C=C)cc4O)cc3)c(C)c2)cc1 [Example Y4] | Incompatible | 445 |  | 
13 | C=CC(=O)OCCCCCCOc1ccc(N=Nc2ccc(N=Nc3ccc(N=Nc4ccc(OCCCCCCOC(=O)C=C)cc4)cc3C)cc2)cc1 [Example Y5] |  | 413 | Compatible | 
14 | C=CC(=O)OCCCCCCCCOc1ccc(N=Nc2ccc(N=Nc3ccc(N=Nc4ccc(OCCCCCCCCOC(=O)C=C)cc4)cc3C)cc2)cc1 [Example Y6] |  | 413 | Compatible | 
15 | C=CC(=O)OCCCCCCCCCCCOc1ccc(N=Nc2cc3sc(NC(=O)c4ccc(CCCC)cc4)nc3s2)cc1 [Example Y7] | Incompatible | 443 |  | 
16 | C=CC(=O)CC(C)OC(=O)CCC(=O)OCCc1ccc(N=Nc2cc3sc(NC(=O)c4ccc(CCCC)cc4)nc3s2)cc1 (stereo not drawn) [Example Y8] |  | 430 | Compatible | 
